Consider twelve compounds from US11951190B2, “Use of labeled inhibitors of prostate specific membrane antigen (PSMA), as agents for the treatment of prostate cancer” (DEUTSCHES KREBSFORSCHUNGSZENTRUM, priority 2013, dated 2024).

The target of data set [1] is T1, PSMA expressing cell line LNCaP (Homo sapiens, UniProt Q04609).
T1 construct: using the PSMA expressing cell line LNCaP; host or cells: LNCaP
The data set is described as follows: Competitive cell binding assay (68Ga-labeled [Glu-urea-Lys(Ahx)]2-HBED-CC radioligand). The note with it: LNCaP cells, competition with 68Ga-labeled [Glu-urea-Lys(Ahx)]2-HBED-CC. On the procedure: (§1) In order to compare the series of novel compounds the competitive binding affinity and the specific internalization was analyzed using the PSMA expressing cell line LNCaP. To determine specific cellular uptake, cells were blocked with 2-(phosphonomethyl)-pentanedioic acid (PMPA). The inhibition potency was also investigated by the enzyme-based NAALADase assay.
(§2) For binding studies and in vivo experiments LNCaP cells (metastatic lesion of human prostatic adenocarcinoma, ATCC CRL-1740) were cultured in RPMI medium supplemented with 10% fetal calf serum and Glutamax (PAA, Austria). During cell culture, cells were grown at 37° C. in an incubator with humidified air, equilibrated with 5% CO2. The cells were harvested using trypsin-ethylenediaminetetraacetic acid (trypsin-EDTA; 0.25% trypsin, 0.02% EDTA, all from PAA, Austria) and washed with PBS.
The competitive cell binding assay and internalization experiments were performed as described previously (Eder et al. 2012).

For another data set, the system named is LNCaP cells. The experiment in a line: Specific cell uptake and internalization. The format is cell-based, human. The note with it: 45 min. The method, then:
as §1, §2
To determine the specific cell uptake and internalization, 10^5 cells were seeded in poly-L-lysine coated 24-well cell culture plates 24 h before incubation. After washing, the cells were incubated with 25 nM of the radiolabeled compounds for 45 min at 37° C. and at 4° C., respectively. Specific cellular uptake was determined by competitive blocking with 2-(phosphonomethyl)pentanedioic acid (500 μM final concentration, PMPA, Axxora, Loerrach, Germany). Cellular uptake was terminated by washing 4 times with 1 mL of ice-cold PBS. Cells were subsequently incubated twice with 0.5 mL glycine-HCl in PBS (50 mM, pH=2.8) for 5 min to remove the surface-bound fraction. The cells were washed with 1 mL of ice-cold PBS and lysed using 0.3 N NaOH (0.5 mL). The surface-bound and the internalized fractions were measured in a gamma counter. The cell uptake was calculated as percent of the initially added radioactivity bound to 10^6 cells [% ID/10^6 cells].

In data set [2] the test system is LNCaP tumor xenografts. The experiment in a line: Biodistribution / organ distribution in LNCaP tumor-bearing mice. The note with it: for PSMA-specific uptake (organ distribution): 68Ga labeled, 1 h post injection of 0.06 nmol, blocking with 2 mg/kg 2-PMPA. Format: in vivo, BALB/c nu/nu mice. The method, then: FIG. 2: Organ Distribution at 1 h post injection. […] Data are expressed as mean % ID/g tissue±SD (n=3).
The favourable pharmacokinetics led to extremely high tumor-to-background ratios (Tumor/Blood: 1058; Tumor/Muscle: 529) after 24 hours
7- to 8-week-old male BALB/c nu/nu mice (Charles River Laboratories) were subcutaneously inoculated into the right trunk with 5×10^6 cells of LNCaP (in 50% Matrigel; Becton Dickinson, Heidelberg, Germany). The tumors were allowed to grow until approximately 1 cm3 in size. The radiolabeled compounds were injected into the tail vein (approx. 1 MBq per mouse; 0.06 nmol). […] Organs of interest were dissected, blotted dry, and weighed. The radioactivity was measured using a gamma counter and calculated as % ID/g.

The subject of data set [3] is LNCaP tumor xenografts. The experiment in a line: Dynamic microPET imaging. Format: in vivo, athymic male nude mice. The note with it: 68Ga-labeled. The method, then: Whole-body coronal microPET images of an athymic male nude mice bearing LNCaP tumor xenografts. […] Approximately 15 MBq/mouse were injected. […] The values are expressed as mean SUV (standardized uptake values).
For the microPET studies, 10-25 MBq of the radiolabeled compounds in a volume of 0.15 ml (˜0.5 nmol) were injected via a lateral tail vein into mice bearing LNCaP tumor xenografts. The anesthetized animals (2% sevoflurane, Abbott, Wiesbaden, Germany) were placed in prone position into the Inveon small animal PET scanner (Siemens, Knoxville, Tn., USA) to perform dynamic microPET scans and 20 min-static scans; c.f. FIG. 1, 3, 5-14

[4] abbreviates: for Ga-68, 25 nM radiolabeled compound.
Where [5] appears, read: 177Lu-labeled, 24 h post injection of 0.06 nmol, n=5.

T1 sequence (Q04609 whole entry): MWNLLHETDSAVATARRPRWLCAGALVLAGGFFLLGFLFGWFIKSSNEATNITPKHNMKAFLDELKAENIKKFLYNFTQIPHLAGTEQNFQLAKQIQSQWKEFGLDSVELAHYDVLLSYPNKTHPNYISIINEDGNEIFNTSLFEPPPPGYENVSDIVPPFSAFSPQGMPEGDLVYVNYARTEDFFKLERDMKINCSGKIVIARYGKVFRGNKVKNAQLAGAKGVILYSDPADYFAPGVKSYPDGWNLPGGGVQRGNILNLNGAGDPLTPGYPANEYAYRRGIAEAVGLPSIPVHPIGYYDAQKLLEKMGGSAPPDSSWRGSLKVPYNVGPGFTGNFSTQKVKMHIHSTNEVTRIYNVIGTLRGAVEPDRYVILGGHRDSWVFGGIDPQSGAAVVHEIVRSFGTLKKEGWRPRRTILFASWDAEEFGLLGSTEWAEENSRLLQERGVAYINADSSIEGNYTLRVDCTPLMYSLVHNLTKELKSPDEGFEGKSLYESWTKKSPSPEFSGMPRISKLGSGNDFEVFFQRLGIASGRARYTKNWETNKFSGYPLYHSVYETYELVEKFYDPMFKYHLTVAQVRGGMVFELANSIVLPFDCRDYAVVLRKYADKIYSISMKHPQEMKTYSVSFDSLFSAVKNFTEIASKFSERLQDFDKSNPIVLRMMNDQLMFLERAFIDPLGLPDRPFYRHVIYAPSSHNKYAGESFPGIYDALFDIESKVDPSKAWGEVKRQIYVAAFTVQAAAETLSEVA

In the case of `O=C(O)CCC(NC(=O)NC(CCCCNC(=O)c1ccc(CNC(=O)CN2CCN(CC(=O)O)CCN(CC(=O)O)CCN(CC(=O)O)CC2)cc1)C(=O)O)C(=O)O` (stereo not drawn) [MB2], in data set [1], the IC50 (as a rule, the concentration needed to halve the response being measured) was 2.75 ± 0.82 nM. Besides, the Internalization in the data set on LNCaP cells (setting [4]) was found to be 8.78 ± 3.96 for Ga-68 % IA/10^6 cells.
The compound `O=C(O)CCC(NC(=O)NC(CCCCNC(=O)c1ccc(CNC(=O)c2ccc(CNC(=O)CN3CCN(CC(=O)O)CCN(CC(=O)O)CCN(CC(=O)O)CC3)cc2)cc1)C(=O)O)C(=O)O` (stereo not drawn) [MB3] came in with an IC50 in data set [1] of 10.5 ± 6.06 nM.
For `O=C(O)CC[C@H](NC(=O)N[C@@H](CCCCNC(=O)c1ccc(CNC(=O)c2ccc(CNC(=O)c3ccc(CNC(=O)CN4CCN(CC(=O)O)CCN(CC(=O)O)CCN(CC(=O)O)CC4)cc3)cc2)cc1)C(=O)O)C(=O)O` [MB4], the IC50 in data set [1] was determined as 0.74 ± 0.5 nM. The Internalization in the data set on LNCaP cells (setting [4]) is reported as 14.18 ± 0.98 for Ga-68 % IA/10^6 cells.
In data set [1], `O=C(O)CCC(NC(=O)NC(CCCCNC(=O)c1ccc(CNC(=O)c2ccc(CNC(=O)c3ccc(CNC(=O)c4ccc(CNC(=O)CN5CCN(CC(=O)O)CCN(CC(=O)O)CCN(CC(=O)O)CC5)cc4)cc3)cc2)cc1)C(=O)O)C(=O)O` (stereo not drawn) [MB10] had an IC50 of 8.67 ± 1.58 nM.
On the same count and under the same terms, the same measure for `O=C(O)CC[C@H](NC(=O)N[C@@H](CCCCNC(=O)[C@@H](Cc1ccc2ccccc2c1)NC(=O)[C@H]1CC[C@H](CNC(=O)CN2CCN(CC(=O)O)CCN(CC(=O)O)CCN(CC(=O)O)CC2)CC1)C(=O)O)C(=O)O` [MB17.D]: 12.4 ± 5.1 nM.
For `O=C(O)CC[C@H](NC(=O)N[C@@H](CCCCNC(=O)[C@H](Cc1ccc2ccccc2c1)NC(=O)[C@H]1CC[C@H](CNC(=O)CN2CCN(CC(=O)O)CCN(CC(=O)O)CCN(CC(=O)O)CC2)CC1)C(=O)O)C(=O)O` [MB17], the Internalization in the data set on LNCaP cells (setting [4]) is on record as 17.02 ± 4.36 for Ga-68 % IA/10^6 cells. Also, the Internalization in the data set on LNCaP cells (for Lu-177, 25 nM radiolabeled compound) is 17.51 ± 3.99 for Lu-177 % IA/10^6 cells. The “PSMA-specific uptake (organ distribution)” value in the data set with LNCaP tumor xenografts [2] (2 mg/kg) was “PSMA-specific uptake in the tumor and the kidneys”. The “PSMA-specific uptake (organ distribution)” value in the data set on LNCaP tumor xenografts [2] (listed as MB 17, 2 mg/kg) was “high PSMA-specific tumor uptake”. In addition, in the data set on LNCaP tumor xenografts [2] (setting [5]), the kidney uptake is 2.13±1.36 % ID/g, the liver uptake amounted to 0.08±0.03 % ID/g, the lung uptake turned out to be 0.11±0.13 % ID/g and the spleen uptake was 0.13±0.05 % ID/g. Besides, the tumor uptake in the data set on LNCaP tumor xenografts [2] (setting [5]) came to 10.58±4.50 % ID/g. Further, the “background clearance and kidney enrichment in PET diagrams” value in the data set on LNCaP tumor xenografts [3] (after 2 hours) is recorded as “rapid background clearance as well as a substantial reduction of the enrichment in the kidney”. The “time of maximum kidney uptake (highest point in the time-activity-curve)” value in the data set with LNCaP tumor xenografts [3] (dynamic PET, after injection of the radiotracer) turned out to be 15 min.
The compound `O=C(O)CCC(NC(=O)NC(CCCCNC(=O)C1CCC(CNC(=O)CN2CCN(CC(=O)O)CCN(CC(=O)O)CCN(CC(=O)O)CC2)CC1)C(=O)O)C(=O)O` (stereo not drawn) [MB22] gave an IC50 in data set [1] of 52.8 nM.
Still for that read-out and setting: as for `O=C(O)CCC(NC(=O)NC(CCCCNC(=O)C(Cc1ccc2ccccc2c1)NC(=O)c1ccc(CNC(=O)CN2CCN(CC(=O)O)CCN(CC(=O)O)CCN(CC(=O)O)CC2)cc1)C(=O)O)C(=O)O` (stereo not drawn) [MB24], the figure is 3.33 nM; as for `O=C(O)CCC(NC(=O)NC(CCCCNC(=O)C(Cc1ccc2ccccc2c1)NC(=O)CCCCCNC(=O)CN1CCN(CC(=O)O)CCN(CC(=O)O)CCN(CC(=O)O)CC1)C(=O)O)C(=O)O` (stereo not drawn) [MB25], 6.64 nM; as for `O=C(O)CC[C@H](NC(=O)N[C@@H](CCCCNC(=O)C1CCC(CNC(=O)C2CCC(CNC(=O)CN3CCN(CC(=O)O)CCN(CC(=O)O)CCN(CC(=O)O)CC3)CC2)CC1)C(=O)O)C(=O)O` (stereo partly drawn) [MB31], 91.8 nM.
Same read-out and setting: the same measure for `O=C(O)CC[C@H](NC(=O)N[C@@H](CCCCNC(=O)C1CCC(CNC(=O)c2ccc(CNC(=O)CN3CCN(CC(=O)O)CCN(CC(=O)O)CCN(CC(=O)O)CC3)cc2)CC1)C(=O)O)C(=O)O` (stereo partly drawn) [MB33]: 59.3 nM; for `O=C(O)CC[C@H](NC(=O)N[C@@H](CCCCNC(=O)C1CCC(CNC(=O)C(Cc2ccc3ccccc3c2)NC(=O)CN2CCN(CC(=O)O)CCN(CC(=O)O)CCN(CC(=O)O)CC2)CC1)C(=O)O)C(=O)O` (stereo partly drawn) [MB35]: 26.2 nM.
